Values after ≈ are worked out from the molar mass of the structure shown.
How the values were obtained:
[1] = tested on: HOP-92; test: Cytotoxicity against human HOP92 assessed as cell growth at high concentration; type: functional
[2] = tested on: CAKI-1; test: Cytotoxicity against human Caki1 assessed as cell growth at high concentration; type: functional
[3] = tested on: Human alphaherpesvirus 3; test: Antiviral activity against Varicella-zoster virus Oka expressing thymidine kinase infected in HEL cells assessed as reduction in plaque formation; type: functional, organism-based; conditions: Human alphaherpesvirus 3, strain Oka vaccine
[4] = tested on: UO-31; test: Cytotoxicity against human UO31 assessed as cell growth at high concentration; type: functional
[5] = tested on: Human immunodeficiency virus 2; test: Antiviral activity against HIV2 ROD infected in MT4 cells assessed as inhibition of virus-induced cytopathogenicity by MTT assay; type: functional, organism-based; conditions: Human immunodeficiency virus 2, ISOLATE ROD
[6] = tested on: SK-MEL-2; test: Cytotoxicity against human SK-MEL-2 assessed as cell growth at high concentration; type: functional
[7] = tested on: Escherichia coli; test: Antibacterial activity against Escherichia coli MTCC 443 after 24 hrs by broth dilution method; type: functional; conditions: MTCC 443, 24 h
[8] = tested on: A498; test: Cytotoxicity against human A498 assessed as cell growth at high concentration; type: functional
[9] = tested on: PC-3; test: Cytotoxicity against human PC3 assessed as cell growth at high concentration; type: functional
[10] = Cytotoxicity against human MT4 cells by MTT assay; type: cell-based
[11] = tested on: HT-29; test: Cytotoxicity against human HT-29 assessed as cell growth at high concentration; type: functional
[12] = tested on: M14; test: Cytotoxicity against human M14 assessed as cell growth at high concentration; type: functional
[13] = tested on: IGROV-1; test: Cytotoxicity against human IGROV1 assessed as cell growth at high concentration; type: functional
[14] = tested on: OVCAR-3; test: Cytotoxicity against human OVCAR3 assessed as cell growth at high concentration; type: functional
[15] = tested on: NCI-H226; test: Cytotoxicity against human NCI-H226 assessed as cell growth at high concentration; type: functional
[16] = tested on: SK-OV-3; test: Cytotoxicity against human SKOV3 assessed as cell growth at high concentration; type: functional
[17] = tested on: 786-0; test: Cytotoxicity against human 786-0 assessed as cell growth at high concentration; type: functional
[18] = tested on: Candida albicans; test: Antifungal activity against Candida albicans MTCC 227; type: functional
[19] = tested on: OVCAR-5; test: Cytotoxicity against human OVCAR5 assessed as cell growth at high concentration; type: functional
[20] = tested on: KM12; test: Cytotoxicity against human KM12 assessed as cell growth at high concentration; type: functional
[21] = tested on: SF-295; test: Cytotoxicity against human SF295 assessed as cell growth at high concentration; type: functional
[22] = tested on: K562; test: Cytotoxicity against human K562 assessed as cell growth at high concentration; type: functional
[23] = tested on: UACC-62; test: Cytotoxicity against human UACC62 assessed as cell growth at high concentration; type: functional
[24] = tested on: MDA-MB-435; test: Cytotoxicity against human MDA-MB-435 assessed as cell growth at high concentration; type: functional
[25] = tested on: ACHN; test: Cytotoxicity against human ACHN assessed as cell growth at high concentration; type: functional
[26] = tested on: HL-60(TB); test: Cytotoxicity against human HL-60(TB) assessed as cell growth at high concentration; type: functional

## Cc1ccc(-[n+]2noc([O-])c2CN2CCN(c3cccc(Cl)c3)CC2)cc1
[1]
  Activity: 72.29%
[2]
  Activity: 86.38%
[3]
  EC50: > 20 µg/mL
[4]
  Activity: 61.64%
[5]
  IC50: > 27.4 µg/mL
[6]
  Activity: 108.26%
[7]
  MIC: 100 µg/mL (≈ 260 µM)
[8]
  Activity: 51.7%
[9]
  Activity: 70.26%
[10]
  CC50: 27.4 µg/mL (≈ 71.3 µM)
[11]
  Activity: 90.87%
[12]
  Activity: 107.94%
[13]
  Activity: 98.49%
[14]
  Activity: 88.44%
[15]
  Activity: 79.22%
[16]
  Activity: 99.53%
[17]
  Activity: 101.4%
[18]
  MIC: 200 µg/mL (≈ 520 µM)
[19]
  Activity: 94.62%
[20]
  Activity: 99.21%
[21]
  Activity: 78.19%
[22]
  Activity: 53.83%
[23]
  Activity: 82.63%
[24]
  Activity: 100.2%
[25]
  Activity: 87.78%

## Cc1ccc(-[n+]2noc([O-])c2CN2CCNCC2)cc1
[1]
  Activity: 76.22%
[2]
  Activity: 91.35%
[3]
  EC50: > 20 µg/mL
[4]
  Activity: 70.1%
[5]
  IC50: > 32.6 µg/mL
[6]
  Activity: 114.56%
[7]
  MIC: 100 µg/mL (≈ 365 µM)
[8]
  Activity: 91.02%
[9]
  Activity: 88.56%
[10]
  CC50: 32.6 µg/mL (≈ 119 µM)
[11]
  Activity: 105.21%
[12]
  Activity: 105.86%
[13]
  Activity: 101.72%
[14]
  Activity: 101.12%
[26]
  Activity: 118.68%
[15]
  Activity: 84.85%
[16]
  Activity: 97.27%
[17]
  Activity: 105.96%
[18]
  MIC: 200 µg/mL (≈ 729 µM)
[19]
  Activity: 96.81%
[20]
  Activity: 91.06%
[21]
  Activity: 98.69%
[22]
  Activity: 120.22%
[23]
  Activity: 93.66%
[24]
  Activity: 103.5%
[25]
  Activity: 92.05%
